Test results as given in patent US20240166627A1, “Terpyridinedione compound or salt thereof, and preparation method and application thereof” (SHENZHEN SALUBRIS PHARMACEUTICALS CO., LTD., priority 2021, published 2024).
In brackets after ≈: the same amount, converted by molar mass.

Legend:
p38α/MK2 complex = p38α/MK2 complex (Homo sapiens, UniProt P49137+Q16539); test: p38α/MK2 complex kinase screening experiment (IMAP FP); assay type: biochemical; conditions: p38α 0.2 nM, MK2 unactive 1 nM, HSP27 substrate 1 μM, ATP 10 μM; read-out: IC50 value that the compound inhibits p38α/MK2 complex
Description: A certain amount of a drug is weighted and prepared into a 10 mM of mother solution by using DMSO; the mother solution is diluted to 100 μM (100× working solution) in two steps; and then, the solution is diluted 3-fold to 33.33 μM, 11.11 μM, 3.70 μM, 1.23 μM, 0.41 μM, 0.14 μM, 0.046 μM, 0.015 μM, and 0.005 μM, successively. DMSO control is also arranged.
Then, a series of diluted DMSO drugs are diluted 25 folds with 1×IMAP Reaction Buffer as a 4× drug working solution.
10 gradient concentrations and 2 duplicated wells are set to each group of compounds; and a DMSO control group and a negative control group (DMSO, no ATP) are additionally set.
• c), after 1 h of incubation at room temperature, 1× Progressive Binding Solution is added to end the enzymatic reaction; after 30 min of incubation, a BMGPHERASTER FSX multifunctional microplate reader is used to detect a Fluorescence Polarization (FP) signal [FP(Ex485/Em520/Em520 nm)].

[1] = tested on: production of TNFα in U937; test: Releasing TNFα from U937 induced by LPS; assay type: cell-based; conditions: Homo sapiens, U-937; PMA-differentiated U937, LPS 100 ng/ml, 4 h; read-out: IC50 value that the compound inhibits the production of TNFα
Excerpt: Cytokine regulation in human monocytes has shown that the p38 pathway is the key to the biosynthesis of a plurality of pro-inflammatory cytokines including TNFα, IL-1β and IL-6. Therefore, the inhibition of the p38 MAPK pathway is to reduce inflammatory response by reducing the biosynthesis of the pro-inflammatory cytokines. […] This is a reflection of the effect of the compound in the present invention to facilitate reduction of inflammation, which is useful in the treatment of various diseases, including chronic inflammatory diseases, acute inflammatory diseases, or self-inflammatory diseases. The potency and efficacy of the p38 inhibitor in blocking cytokine production are evaluated using a human U937 cell line.
A 1640 medium with an article number being A10491-01, Gibco; penicillin-streptomycin with an article number being 15140-122, Gibco; fetal bovine serum with an article number being 10099-141C, Gibco; PBS with an article number being 10010-031, Gibco; LPS with an article number being L2880, Sigma; PMA with an article number being P1585, Sigma; dimethyl sulfoxide with an article number being D8418-1L, Sigma; and a TNFα kit with an article number being K151QWD-4, MSD.
A 96-well plate with an article number being 3599, Corning; a plate-vibrating device with an article number being QB-9002, QILINBEIER; a centrifuge with an article number being 5810R, Eppendorf; a carbon dioxide incubator with an article number being 371, Thermo; a counter with an article number being C10281, Gibco; a microscope with an article number being CKX41, OLYMPUS; and an MSD plate reader with an article number being 1201 MESO SECTOR 600, MSD.
U937, ATCC with an article number being CRL-1593.2.
About 2 mg of a drug is weighted; a mother solution is prepared to 10 mM (which is calculated by free alkali) by means of DMSO; and the mother solution is diluted 10-fold to 1 mM, and then is successively diluted 4-fold to 250 μM, 62.5 μM, 15.6 μM, 3.9 μM, 0.97 μM, 0.24 μM, and 0.061 μM. The above series of diluted DMSO drugs is diluted 20-fold as working solutions by using media.
At Day 0, 10000/well inoculation is performed, stimulation is performed for 48 h with 20 ng/ml of PMA, and culture is performed at 37° C., 5% CO2. • At Day 2, 1. Supernatant is removed from differentiated U937, cleaning is performed once with PBS, and 96 μl of the 1640 medium is added. • 2. 2 μl of the compound containing (DMSO with a final concentration being 0.1%), and culture is performed for 30 min at 37° C., 5% CO2. • 3. 2 μl of LPS (a final concentration being 100 ng/ml) is added, cells are stimulated, and culture is performed for 4 h at 37° C., 5% CO2. • 4. Centrifugation is performed, supernatant is taken, and content of TNFα in the supernatant is determined through ELISA.
The content of TNFα corresponding to each well is calculated by using a standard curve in the kit.
The compound IC50 is calculated by using a GraphPad nonlinear fitting formula, and for an experimental result, refer to Table 1.

[2] = Determination of solubility; assay type: physicochemical; conditions: aqueous buffer, thermodynamic from solid, 37° C. 1 h
Description: About 0.5 mg of a to-be-tested sample in a centrifuge tube is weighted, an appropriate amount of DMSO is added to completely dissolve the sample, and then methanol is added to make up to 1 ml.
(If there are more pH values to be investigated, the preparation method may be deduced by analogy).
3. The prepared control solution and test solution are simultaneously put into a 37° C. water bath and heated for 1 h, after 1 h, the solutions are taken out and cooled to room temperature, and then the solutions are filtered with a 0.22 μm filter membrane for sample injection.
4. The concentration of the sample in the test solution is calculated according to C=(A*(ms/vs))/AS, and experiment results are shown in Table 2.
Note: ms, vs and AS are the weight, volume and peak area of the sample in the control solution, respectively.
A is the peak area of the test solution.

[3] = Pharmacokinetic experiment in Beagle dogs (IV and PO); assay type: in vivo; conditions: male, dog, plasma
Excerpt: Polyethylene glycol 400 (batch number: GORKREUT, Saen Chemical Technology (Shanghai) Co., Ltd.); DMSO (batch number: 20200319, GHTECH (Guangdong) Co., Ltd.); and normal saline (batch number: C20052604, Jiangxi Kelun Pharmaceutical Co., Ltd.). An LC-MS instrument (Thermo Fisher Ultimate 3000 UPLC, TSQ QUANTUM ULTRA TSQ Quantum GC).
5 male Beagle dogs with weights being 5 kg to 7 kg, purchased from Beijing Mars Biotechnology Co., Ltd. […]
After the above mixture is given to the dogs through intragastric administration (n=3) or intravenous administration (n=2), about 1 mL of blood is collected from the forelimb or hindlimb vein with a scalp needle, respectively, at 5 min (intravenous administration only), 15 min, 30 min, 1 h, 2 h, 4 h, 6 h, 8 h, 24 h to put into blood collection tubes containing EDTA-K2 anticoagulant; centrifugation is performed for 10 min at 4000 rpm to separate plasma; and then the tubes are stored at −80° C. for testing.
A certain amount of a test sample is accurately weighted and dissolved with DMSO to 2 mg/mL, as a stock solution. The stock solution is diluted to 30000, 10000, 3000, 1000, 300, 100, 50, 30, and 10 ng/mL by using acetonitrile:water (1:1), to obtain standard curve working solutions. 5 μL of the working solution is added to 45 μL of blank canine plasma; and well mixing is performed through vortex, to prepare into standard curve samples equivalent to plasma concentrations of 3000, 1000, 300, 100, 30, 10, 5, 3, and 1 ng/mL. 30 μL of the standard curve sample and the collected plasma sample (plasma collected at 5 min, 15 min, and 30 min of intravenous administration is diluted 5-fold) are added to 150 μL of a propranolol acetonitrile solution (internal standard, 50 ng/mL) to precipitate protein, then 100 μL of water is added to well mix through vortex; centrifugation is performed for 5 min at 4000 rpm; and supernatant is taken for LC-MS analysis. LC-MS detection conditions include the following.
Chromatographic column: Waters ACQUITY™ PREMIER HSS T3, 50*2.1 mm, 1.8 μm.
Mobile phase A: water (0.1% formic acid); mobile phase B: acetonitrile; flow rate: 0.5 mL/min; and gradient elution is shown in Table 3 below.
After LC-MS detection of blood drug concentration, and a non-compartment model of WinNonlin 6.1 software is adopted to calculate pharmacokinetic parameters of beagle dogs after administration.

Sequence of p38α/MK2 complex (Q16539 whole entry): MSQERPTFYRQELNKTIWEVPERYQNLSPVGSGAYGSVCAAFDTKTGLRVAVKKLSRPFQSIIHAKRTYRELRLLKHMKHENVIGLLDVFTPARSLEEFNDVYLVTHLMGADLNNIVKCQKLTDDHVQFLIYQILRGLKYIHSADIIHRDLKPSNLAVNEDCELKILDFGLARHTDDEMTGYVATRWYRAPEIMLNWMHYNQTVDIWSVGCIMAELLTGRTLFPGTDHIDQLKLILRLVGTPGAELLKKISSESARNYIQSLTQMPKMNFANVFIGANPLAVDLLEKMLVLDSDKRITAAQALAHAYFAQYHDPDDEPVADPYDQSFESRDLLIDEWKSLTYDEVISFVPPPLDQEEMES
Sequence of p38α/MK2 complex (P49137 whole entry): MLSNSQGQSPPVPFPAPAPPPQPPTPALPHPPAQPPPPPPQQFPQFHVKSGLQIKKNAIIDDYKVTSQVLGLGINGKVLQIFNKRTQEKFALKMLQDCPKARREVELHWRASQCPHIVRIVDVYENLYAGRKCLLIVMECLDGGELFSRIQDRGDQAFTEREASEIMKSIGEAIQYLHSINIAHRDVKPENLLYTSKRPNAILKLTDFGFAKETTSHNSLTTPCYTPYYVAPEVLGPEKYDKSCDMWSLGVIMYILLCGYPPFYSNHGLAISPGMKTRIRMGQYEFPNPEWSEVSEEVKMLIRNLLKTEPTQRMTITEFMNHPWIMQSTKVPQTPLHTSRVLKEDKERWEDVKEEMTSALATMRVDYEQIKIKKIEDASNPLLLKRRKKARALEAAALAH

IC50 (p38α/MK2 complex) [nM] | IC50 [1] [nM] | Structure (SMILES) | other results
1.33 | 1.73 | Cc1cnc(-n2cccc(C(C)(C)O)c2=O)cc1-n1c(C)cc(OCc2cccc(F)c2F)c(Cl)c1=O [Embodiment 17, 3″-chloro-4″-((2,3-difluorobenzyl)oxy)-3-(2-hydroxypropane-2-yl)-5′,6″-dimethyl-2H,2″H-[1,2′:4′,1″-terpyridine]-2,2″-diketone] | 
 | 14.7 | Cc1cnc(-n2cccc(C(C)(C)O)c2=O)cc1-n1c(C)cc(OCc2ccccn2)c(Cl)c1=O [Embodiment 3] | solubility at 1 h ([2]; pH = 2.0, PBS buffer): 1290 µg/mL (≈ 2610 µM); solubility at 1 h ([2]; pH = 7.4, PBS buffer): 140 µg/mL (≈ 284 µM)
1.58 |  | Cc1cnc(-n2cccc(C(C)(C)O)c2=O)cc1-n1c(C)cc(OCc2ncc(F)cc2F)c(Br)c1=O [Embodiment 41, 3″-bromo-4″-((3,5-difluoropyridine-2-yl)methoxy)-3-(2-hydroxypropane-2-yl)-5′,6″-dimethyl-2H,2″H-[1,2′:4′,1″-terpyridine]-2,2″-diketone] | 
 |  | Cc1cnc(-n2cccc(C(C)(C)O)c2=O)cc1-n1c(C)cc(OCc2ncc(F)cc2F)cc1=O [Embodiment 2, 4″-((3,5-difluoropyridine-2-yl)methoxy)-3-(2-hydroxypropane-2-yl)-5′,6″-dimethyl-2H,2″H-[1,2′:4′,1″-terpyridine]-2,2″-diketone] | solubility at 1 h ([2]; pH = 2.0, PBS buffer): 192 µg/mL (≈ 388 µM); solubility at 1 h ([2]; pH = 7.4, PBS buffer): 234 µg/mL (≈ 474 µM)
2.26 | 2.84 | CCC(C)(O)c1cccn(-c2cc(-n3c(C)cc(OCc4ncc(F)cc4F)c(Cl)c3=O)c(C)cn2)c1=O (stereo not shown) [Embodiment 26, 3″-chloro-4″-((3,5-difluoropyridine-2-yl)methoxy)-3-(2-hydroxybutane-2-yl)-5′,6″-dimethyl-2H,2″H-[1,2′:4′,1″-terpyridine]-2,2″-diketone] | 
3.14 |  | CCc1cnc(-n2cccc(C(C)(C)O)c2=O)cc1-n1c(C)cc(OCc2ncc(F)cc2F)c(Cl)c1=O [Embodiment 42, 3″-chloro-5′-ethyl-4″-((3,5-difluoropyridine-2-yl)methoxy)-3-(2-hydroxypropane-2-yl)-6″-methyl-2H,2″H-[1,2′:4′,1″-terpyridine]-2,2″-diketone] | 
 | 6.86 | Cc1cnc(-n2cccc(C(C)(C)O)c2=O)cc1-n1c(C)cc(OCc2ncccc2F)c(Cl)c1=O [Embodiment 20, 3″-chloro-4″-((3-fluoropyridine-2-yl)methoxy)-3-(2-hydroxypropane-2-yl)-5′,6″-dimethyl-2H,2″H-[1,2′:4′,1″-terpyridine]-2,2″-diketone] | solubility at 1 h ([2]; pH = 2.0, PBS buffer): 769 µg/mL (≈ 1500 µM); solubility at 1 h ([2]; pH = 7.4, PBS buffer): 773 µg/mL (≈ 1510 µM)
3.35 | 3.31 | Cc1cnc(-n2cccc(C(C)(C)O)c2=O)cc1-n1c(C)cc(OCc2ncc(Br)cc2F)c(Cl)c1=O [Embodiment 16, 3″-chloro-4″-((3-fluoro-5-bromopyridine-2-yl)methoxy)-3-(2-hydroxypropane-2-yl)-5′,6″-dimethyl-2H,2″H-[1,2′:4′,1″-terpyridine]-2,2″-diketone] | 
 |  | Cc1cnc(-n2cccc(C(C)(C)O)c2=O)cc1-n1c(C)cc(OCc2ncc(F)cc2F)c(Cl)c1=O (racemic) [Embodiment 1, 3″-chloro-4″-((3,5-difluoropyridine-2-yl)methoxy)-3-(2-hydroxypropane-2-yl)-5′,6″-dimethyl-2H,2″H-[1,2′:4′,1″-terpyridine]-2,2″-diketone] | AUC(0-t) ([3]; IV 1 mg/kg): 2870 ng·h/mL; Cmax ([3]; IV 1 mg/kg): 1510 ng/mL; clearance ([3]; IV 1 mg/kg): 6.15 mL/min/kg; bioavailability ([3]; PO 5 mg/kg vs IV 1 mg/kg): 229%
2.85 |  | Cc1cnc(-n2cccc(C3CCOCC3)c2=O)cc1-n1c(C)cc(OCc2ncc(F)cc2F)c(Cl)c1=O [Embodiment 40, 3″-chloro-4″-((3,5-difluoropyridine-2-yl)methoxy)-5′,6″-dimethyl-3-(tetrahydro-2H-pyran-4-yl)-2H, 2″H-[1,2′:4′,1″-terpyridine]-2,2″-diketone] | 

Structure (SMILES) | IC50 (p38α/MK2 complex) [nM] | IC50 [1] [nM] | other results
Cc1cnc(-n2cccc(C(C)(C)O)c2=O)cc1-n1c(C)cc(OCc2ncc(F)cc2F)c(Cl)c1=O (single isomer, unassigned) [Comparative example 1A, reference compound] | 0.53 |  | 
